The values that follow are results of earlier work, collected in patent publication US20060134226A1, “Compositions useful to treat ocular neovascular diseases and macular degeneration” (priority 2004, published 2006).

The conditions of series [1]: in vivo.
The conditions of series [2]: in vivo. This is another data set of the same source.
For series [3] the following is noted: oral dose of 600 mg tid, long periods of time, patients with chronic bronchitis and emphysema.
Test in series [4]: not given
The source holds these as a separate data set.

For series [5] the following is noted: about 200 mg dosage of zinc per day.
Series [6] has as its system macular degeneration changes. As to conditions: 80 mg of zinc, versus placebo.
The conditions of series [7]: consumed daily.

Turning to beta carotene [beta-carotene], under “20 mg/day of beta-carotene”, the “risk among male smokers” value was “increased risk of lung cancer” and the “risk in men with previous myocardial infarction” value was “increased risk of fatal coronary heart attacks”. For the setting “healthy, non-smokers”, the “dosage level with no observed adverse effects” value was ≤ 25 mg per day. For the same compound, in series [1], the “efficiency of conversion to vitamin A in the body” value is listed as “approximately 50%”.

Consider `CC(=O)Oc1c(C)c(C)c2c(c1C)CC[C@@](C)(CCC[C@H](C)CCC[C@H](C)CCCC(C)C)O2` (racemic) [dl-alpha tocopheryl acetate], for which the “level at which no adverse effects have been observed” value in series [2] is ≤ 800 mg.

On to `CC(=O)N[C@@H](CS)C(=O)O` [NAC, N-acetylcysteine], for which the tolerability entry in series [3] is given as “well tolerated”. Besides, the “dose excreted in the urine” value in series [4] (after 24 hours) is reported as “approximately 22%”. The mean plasma half-life entry in series [4] (humans) is on record as “about 1.35 hours”. Further, the “absorption of radiolabelled NAC” value in series [4] (humans, one hour after administration) is recorded as “rapidly absorbed”.

For the compound `[Zn]` [zinc], the side effects result in series [5] is “potential side effects such as anemia”. The “retarding macular degeneration changes” value in series [6] is given as “significantly better than placebo”.

For the compound `O=C1O[C@H]([C@@H](O)CO)C(O)=C1O` [vitamin C, ascorbic acid], the “daily intake without any known adverse effects” value in series [7] is reported as ≥ 1,000 mg.
